US9637519B2, “Peptide for inducing mast cell-specific apoptosis and use thereof” (CAREGEN CO., LTD., priority 2013, dated 2017)
Where two headings read alike, the source gives them in different places. Ends that are not written are not given here.

T1: FcεRI receptor (Rattus norvegicus, UniProt P12371+P13386+P20411)
T1 construct: FcεRI receptor, which is present on surfaces of mast cells; endogenous in cells; host or cells: RBL-2H3 rat mast cell line
T1 sequence (P12371 24-245): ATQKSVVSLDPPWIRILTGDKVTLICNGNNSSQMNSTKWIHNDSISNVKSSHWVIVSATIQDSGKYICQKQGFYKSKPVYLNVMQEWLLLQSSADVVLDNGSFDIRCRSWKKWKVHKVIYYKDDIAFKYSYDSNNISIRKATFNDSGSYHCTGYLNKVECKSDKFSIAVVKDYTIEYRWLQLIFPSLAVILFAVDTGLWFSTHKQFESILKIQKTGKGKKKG
T1 sequence (P13386 1-243): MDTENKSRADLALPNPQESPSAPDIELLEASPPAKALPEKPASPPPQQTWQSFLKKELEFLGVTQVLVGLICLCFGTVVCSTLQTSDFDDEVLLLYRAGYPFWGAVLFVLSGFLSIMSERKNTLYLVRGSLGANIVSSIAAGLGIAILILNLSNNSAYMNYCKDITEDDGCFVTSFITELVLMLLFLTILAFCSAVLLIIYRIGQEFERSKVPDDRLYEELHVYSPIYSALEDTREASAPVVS
T1 sequence (P20411 19-86): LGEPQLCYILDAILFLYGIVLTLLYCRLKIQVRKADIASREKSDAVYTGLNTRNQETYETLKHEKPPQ


How the values were obtained:
RBL-2H3 cells = assay: Histamine secretion from IgE/HSA-stimulated mast cells (histamine ELISA); format: cell-based, rat; settings: IgE 1 μg/ml sensitized, HSA 1 μg/ml stimulated
Experimental: In the culture of RBL-2H3 cells sensitized by IgE treatment (1 μg/ml) for 16 h, the existing culture medium was removed and exchanged with a tyrode buffer. […] In addition, in order to measure the activity of beta-hexosaminidase, the degree of color development after a reaction with a substrate, p-N-acetyl-glucosamine (NAG; SIGMA, USA) was determined by measuring the absorbance at 405 nm using a spectrophotometer (see FIG. 3b).

[1] = test system: RBL-2H3 rat mast cell lines; settings: 10 μg/ml treatment group, 27 h
Experimental: First, RBL-2H3 rat mast cell lines (Korean Cell Line Bank, Korea) were cultured in Dulbecco's modified Eagle's medium (DMEM, Gibco, U.S.A.) supplemented with 10% fetal bovine serum (FBS, Sigma) using a flask for tissue culture (SPL, Korea). The cultured cell lines were detached from the bottom of the culture container using a 1% trypsin solution, and then only cell deposits were collected by centrifugation. The cell deposits were again suspended in DMEM culture liquid, placed in each well of a 6-well plate for tissue culture (SPL, Korea) at 1×10^5 cells per well, and then cultured for 24 h under conditions of 37° C. and 5% CO2. After 24 h, the medium was exchanged with the same culture liquid. […] After the completion of the culture, the culture supernatant fluid was removed, the cultured cell lines were detached from the bottom of the culture container using a 1% trypsin solution, and then only cell precipitates were collected by centrifugation. The cells were stained using an Annexin V-PI staining kit (BD pharmigen), and then FL1 and FL2 intensities were measured using flow cytometry, FACS. Annexin V-positive apoptotic cells were counted (see FIG. 2a).

NIH3T3 cells = settings: NIH3T3 fibroblasts; 1 and 10 μg/ml; 27 h; MTT
Experimental: (§1) Meanwhile, in order to investigate whether or not the apoptosis effect is a mast cell-specific reaction, the cytotoxicity test was conducted using HaCaT cells as keratinocytes and NIH3T3 cells as fibroblasts. The cells were placed in a 96-well plate for tissue culture at 5×10^3 cells per well, and then cultured for 24 h under conditions of 37° C. and 5% CO2. After 24 h, the medium was exchanged with the same culture liquid. A blank sample for determining a reference and the synthetic peptide were dissolved in 10% distilled water in a sterile state, followed by culturing at concentrations of 1 μg/ml and 10 μg/ml for 27 h under the same conditions as above. After the completion of the culture, the culture liquid was treated with MTT reagent (5 mg/ml; SIGMA, USA) with 1/10 volume and further cultured for 4 h, and the generated formazan was dissolved in DMSO and the absorbance was measured at 540 nm using a spectrophotometer (Molecular devices, USA) (see FIG. 2c).

HaCaT cells = settings: HaCaT human keratinocytes; 1 and 10 μg/ml; 27 h; MTT
Experimental: as §1

Bcl2 = settings: 1 and 10 μg/ml, 27 h
ERK1/2 = settings: IgE-sensitized cells; peptide 10 μg/ml 20 min; HSA 1 μg/ml 5 or 30 min
Experimental: (§2) The cells were placed in a 60 mm-sized plate for culture (SPL, Korea) at 1.5×10^6 cells per well, and then cultured for 24 h under conditions of 37° C. and 5% CO2. After that, the cells were treated with IgE (1 μg/ml) for 24 h for cell sensitization, and then a blank sample for determining a reference and the synthetic peptide were dissolved in 10% distilled water in a sterile state, followed by treatment with a concentration of 10 μg/ml for 20 min, and then the cells were stimulated by treatment with 1 μg/ml allergen HSA for 5 min or 30 min.

p38 = settings: IgE-sensitized cells; peptide 10 μg/ml 20 min; HSA 1 μg/ml 5 or 30 min
Experimental: as §2

Lyn = settings: IgE-sensitized cells; peptide treatment 20 min; HSA 1 μg/ml
[2] = Thermal stability at 37° C. in phosphate buffered saline, HPLC quantification; format: physicochemical; settings: 0.1 mg/ml in PBS, days 0-70 (FIG. 5)
Experimental: 1 ml of the prepared solution was placed in each glass vial, and allowed to stand at 37° C. The solution standing at 37° C. was sampled on days 0, 5, 10, 20, 30, 50, and 70. Centrifugation for each day was conducted to remove modified peptides or proteins, and the supernatant was taken. HPLC was used for quantification (see FIG. 5).

FcεRI receptor = target: T1, FcεRI receptor; assay: Immunoprecipitation with IgE antibody and western blotting of FcεRI gamma sub-chain (receptor complex formation); format: cell-based; settings: IgE-sensitized cells; peptide 10 μg/ml; HSA stimulation 10 min
Experimental: After the first separation using immunoprecipitation, western blotting was conducted using FcεRI gamma sub-chain antibody to confirm the protein amount of the gamma sub-chains binding to IgE (see FIG. 4c).

[3] = activated mast cells (IgE and HSA treatment)

Molecule	secretion amount of histamine (RBL-2H3 cells; positive control 40 μM)	Annexin V-positive cell count (apoptosis) [1, 3]	Annexin V-positive cell count (apoptosis) ([1]; inactivated mast cells)	cytotoxicity (NIH3T3 cells)	cytotoxicity (HaCaT cells)	expression level of Bcl2 (Bcl2; [3])	expression level of Bcl2 (Bcl2; inactivated mast cells)	phosphorylation of ERK1/2 (ERK1/2)	phosphorylation of p38 (p38)	phosphorylation of Lyn (Lyn)	thermal stability [2]	secretion amount of histamine (RBL-2H3 cells; peptide 1 and 10 μg/ml)	complex formation of FcεRI receptor (gamma sub-chains binding to IgE) (FcεRI receptor)
O=c1c(O)c(-c2ccc(O)c(O)c2)oc2cc(O)cc(O)c12 [quercetin, reference compound]	reduces the secretion amount of histamine												
WVPYQARVPYPR [peptide of the present invention]		increased the Annexin V-positive cell count	increased the Annexin V-positive cell count	did not exhibit cytotoxicity	did not exhibit cytotoxicity	reduce the expression level of Bcl2	reduce the expression level of Bcl2	efficacy of inhibiting the phosphorylation	efficacy of inhibiting the phosphorylation	significantly inhibited in a concentration-dependent manner	very excellent thermal stability	activity to reduce the secretion amount of histamine in a concentration-dependent manner	significantly inhibit the complex formation
natural semaphorin 3A protein: standard form growth factor (Semaphorin 3A) purchased from NIBSC (UK); human semaphorin 3A, SEQ ID NO: 2 (protein, listed as Homo sapiens) MGWLTRIVCLFWGVLLTARANYQNGKNNVPRLKLSYKEMLESNNVITFNGLANSSSYHTFLLDEERSRLYVGAKDHIFSFDLVNIKDFQKIVWPVSYTRRDECKWAGKDILKECANFIKVLKAYNQTHLYACGTGAFHPICTYIEIGHHPEDNIFKLENSHFENGRGKSPYDPKLLTASLLIDGELYSGTAADFMGRDFAIFRTLGHHHPIRTEQHDSRWLNDPKFISAHLISESDNPEDDKVYFFFRENAIDGEHSGKATHARIGQICKNDFGGHRSLVNKWTTFLKARLICSVPGPNGIDTHFDELQDVFLMNFKDPKNPVVYGVFTTSSNIFKGSAVCMYSMSDVRRVFLGPYAHRDGPNYQWVPYQGRVPYPRPGTCPSKTFGGFDSTKDLPDDVITFARSHPAMYNPVFPMNNRPIVIKTDVNYQFTQIVVDRVDAEDGQYDVMFIGTDVGTVLKVVSIPKETWYDLEEVLLEEMTVFREPTAISAMELSTKQQQLYIGSTAGVAQLPLHRCDIYGKACAECCLARDPYCAWDGSACSRYFPTAKRRTRRQDIRNGDPLTHCSDLHHDNHHGHSPEERIIYGVENSSTFLECSPKSQRALVYWQFQRRNEERKEEIRVDDHIIRTDQGLLLRSLQQKDSGNYLCHAVEHGFIQTLLKVTLEVIDTEHLEELLHKDDDGDGSKTKEMSNSMTPSQKVWYRDFMQLINHPNLNTMDEFCEQVWKRDRKQRRQRPGHTPGNSNKWKHLQENKKGRNRRTHEFERAPRSV											low stability at the time of storage for a long period of time		
